Reference: paper PMC3703888, “Integration of Different “-omics” Technologies Identifies Inhibition of the IGF1R-Akt-mTOR Signaling Cascade Involved in the Cytotoxic Effect of Shikonin against Leukemia Cells” (Evidence-based Complementary and Alternative Medicine : eCAM, 2013)

How the values were obtained:
U937 leukemia cells = assay: Resazurin reduction assay (cytotoxicity); format: cell-based; conditions: Homo sapiens, U-937, 24 h treatment, read-out: IC50 (inhibition of U937 proliferation by 50%)
Experimental: Resazurin reduction assay was performed to assess cytotoxicity of shikonin toward U937 cells. The assay is based on reduction of the indicator dye, resazurin, to the highly fluorescent resorufin by viable cells. Nonviable cells rapidly lose the metabolic capacity to reduce resazurin and thus produce no fluorescent signal. Briefly, aliquots of 2 × 10^4 U937 cells per well were seeded in 96-well plates in a total volume of 100 μL. Shikonin was immediately added in varying concentrations in an additional 100 μL of culture medium to obtain a total volume of 200 μL/well. After 24 h, 20 μL resazurin (Sigma-Aldrich, Germany) 0.01% w/v in ddH2O was added to each well and the plates were incubated at 37°C for 4 h. Fluorescence was measured on an Infinite M2000 Pro plate reader (Tecan, Germany) using an excitation wavelength of 544 nm and an emission wavelength of 590 nm. Each assay was done at least two times, with six replicates each. The viability was evaluated based on a comparison with untreated cells. IC50 value represents the shikonin concentrations required to inhibit 50% of cell proliferation and was calculated from a calibration curve by linear regression using Microsoft Excel.

U937 cells = assay: Stable-isotope dimethyl labeling quantitative proteomics; format: cell-based; conditions: 0.3 μM shikonin (IC50), 24 h vs DMSO
Experimental: To examine quantitative changes in the proteome of U937 leukemia cells after shikonin treatment, the dimethyl labeling proteomics analysis was performed. Briefly, 5 × 10^6 U937 cells were seeded in 10 mL RPMI 1640 medium in a 25 cm^2 culture flask. Subsequently, cells were treated with 0.3 μM shikonin (IC50) or DMSO as solvent control for 24 h. After incubation cells were washed with PBS and protein extraction was performed using the M-PER Mammalian Protein Extraction Reagent (Thermo Scientific, Germany) containing a protease inhibitor cocktail (Roche, Germany), cells were incubated with the extraction reagent for 40 min at 4°C. After incubation, cellular debris was removed by centrifugation at 14000 ×g for 15 min. Supernatants were transferred into new tubes and an acetone precipitation of the proteins was performed. After precipitation, the acetone was removed and the protein pellet in each of the tube was further diluted to 1 μg/μL with 50 mM TEABC and reduced with 5 mM TCEP for 1 h at 37°C, followed by alkylation using 2 mM MMTS for 45 min at room temperature. For the proteolytic digestion, the modified tube-gel digestion protocol was applied and the detergent residue was checked using the method described previously. Two 200 μg proteolytic protein mixtures from DMSO and shikonin treated cells were first dissolved in 200 μL of 100 mM TEABC (pH 8.5) and, respectively, mixed with 20 μL of formaldehyde and formaldehyde-13C, d2 (4%, diluted with H2O). After vortexing (5 min) and centrifugation, each of the sample solutions was mixed with 20 μL of 600 mM sodium cyanoborohydride solution. The sample solutions were vortexed (10 min) and centrifuged again and then allowed to react for 30 min at 25°C. To quench the reaction, ammonium hydroxide (7% in water, 10 μL) was added to each sample solution. Finally, 16 μL of formic acid was added to acidify each of the sample solutions and two samples were further combined for strong cation exchange (SCX) fractionation.
For SCX fractionation, the buffer SCX-A (5 mM KH2PO4 in 25% ACN at pH 3) and SCX-B (5 mM KH2PO4 and 350 mM KCl in 25% ACN at pH 3) were used as the mobile phase. The peptide mixtures were reconstituted in buffer SCX-A and then loaded into a PolySULFOETHYL A column (200 × 2.1 mm, 5 μm, 300Å, PolyLC, Columbia, MD) for 10 min at the flow rate of 0.2 mL/min. Peptides were fractionated using a 75 min gradient from 0 to 100% of buffer SCX-B. Fractions were collected every three minutes from the retention time of 10 to 55 min using a fraction collector (BioFrac Fraction Collector, BioRad Laboratories, Hercules, CA). The peptide mixtures in each of the fraction were further analyzed by the LC-MS/MS.
LC-MS/MS analysis was performed with a nanoUHPLC system (nanoACQUITY UPLC, Waters, Millford, MA) coupled online to the nanoelectrospray source of a hybrid quadrupole time-of-flight mass spectrometer (Q-TOF-MS) (SYNAPT HDMS G2, Waters, Manchester, UK). For LC-MS/MS analysis, water with 0.1% FA and ACN with 0.1% FA were used as the mobile phase. The sample was injected into a trap column (Symmetry C18, 5 μm, 180 μm × 20 mm, Waters, Milford, MA) and separated online with a reverse phase column (BEH C18, 1.7 μm, 75 μm × 250 mm, Waters, Milford, MA) at the flow rate of 300 nL/min using either a 95 min gradient with 5–90% ACN/water ratio. The mass spectrometry instruments were all operated in the positive ion mode, and data-dependent acquisition methods were applied for all experiments. The acquisition settings were set to one full MS scan (350–1600 m/z) with a scan time of 1 second and switched to six product ion scans (50–1900 m/z) with 0.4 second scan time when a precursor ion charge was 2+, 3+, or 4+, and the intensity was higher than 200 counts. The data files generated from LC-MS/MS were processed by UniQua and further analyzed by the MASCOT and Trans Proteomics Pipeline (TPP) 1 version 4.4 rev. 1, and the details and criteria of data processing were described previously.

SMILES: CC(C)=CC[C@@H](O)C1=CC(=O)c2c(O)ccc(O)c2C1=O [shikonin]
- IC50 (U937 leukemia cells): 300 nM
- FC protein 5′-Nucleotidase domain-containing protein 2 (U937 cells): −5.4
- FC protein 60S ribosomal protein L24 (U937 cells): −7.5
- FC protein ATP-dependent RNA helicase DDX3Y (U937 cells): −4.3
- FC protein Cell differentiation protein RCD1 homolog (U937 cells): +10.0
- FC protein Golgi phosphoprotein 3 (U937 cells): −3.5
- FC protein Heme oxygenase 1 (U937 cells): +14.3
- FC protein Heterogeneous nuclear ribonucleoprotein H2 (U937 cells): −4.5
- FC protein Hexokinase-1 (U937 cells): −20.5
- FC protein Histone H2B type 2-E (U937 cells): +7.1
- FC protein Histone H4 (U937 cells): +11.1
- FC protein LIM domain and actin-binding protein 1 (U937 cells): +6.7
- FC protein Leucine-rich repeat-containing protein 58 (U937 cells): −3.5
- FC protein Mannose-6-phosphate isomerase (U937 cells): +7.7
- FC protein Methylosome protein 50 (U937 cells): −4.0
- FC protein Neuronal-specific septin-3 (U937 cells): +6.7
- FC protein Rho GTPase-activating protein 4 (U937 cells): −3.1
- FC protein Schlafen family member 11 (U937 cells): +6.7
- FC protein Sorting nexin-17 (U937 cells): +9.1
- FC protein Vacuolar protein sorting-associated protein 11 homolog (U937 cells): −20.0
- FC protein WD repeat-containing protein 3 (U937 cells): +12.1
